# Structures can show the parent of a compound that is named as a salt.
# Legend:
# [1] = target: T1, proton pump (H+/K+-ATPase) (Sus scrofa, UniProt P19156); assay: Measurement of inhibitory effects on proton pump (H+/K+-ATPase) activities; type: biochemical; conditions: hog gastric vesicles, K+-specific H+/K+-ATPase activity, Tris-HCl buffer pH 7.4, 37° C. for 40 minutes, malachite green Pi readout
# T1 construct: Gastric vesicles were prepared from hog stomach via centrifugal separation; from tissue; host or cells: hog stomach (gastric vesicles, method of Rabon et al. 1988)
# Summary of the method: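 Hog gastric vesicles in 60 mmol/l Tris-HCl pH 7.4 with 0.5% DMSO were treated with compounds at room temperature; reaction was started with 10 μl of 10 mmol/l ATP stock. Released Pi was read at 570 nm, K+-specific activity taken as the ±K+ difference. IC50 from 4-parameter logistic fit.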
# [2] = tested on: basal gastric acid secretion; assay: Inhibitory effect on the basal gastric acid secretion in pylorus-ligated rats (Shay's rat model); type: in vivo, Sprague Dawley (SD) rats; conditions: 5 h, male SD rats, 3 mg/kg/2 ml into the duodenum, five hours after the ligation, total gastric acid secretion vs control group
# Description: 3) Inhibitory Effect on the Basal Gastric Acid Secretion in Pylorus-Ligated Rats
# Assays for determining inhibitory effect of the compounds of the present invention on the basal gastric acid secretion was performed according to Shay's rat model (Shay, H., et al., 1945, gastroenterology, 5, p. 43-61). Male Sprague Dawley (SD) rats with a body weight in the range of 180˜220 g were divided into test (n=5) and control groups (n=5), and fasted for 18 hours with free access to water. Under isoflurane anesthesia, the abdomens of the rats were incised and then the pylorus was ligated. After the ligation, the control groups were administered with only 10% ethanol, 20% polyethylene glycol (PEG) 400, and 10% aqueous Cremophor solution through the duodenum, and the other groups were administered with test compounds suspended in 10% ethanol, 20% PEG 400, and 10% aqueous Cremophor solution at a concentration of 3 mg/kg/2 ml into the duodenum. Five hours after the ligation, the experimental animals were euthanized and their stomach contents were collected. The thus obtained contents were centrifuged at 4,000×g for 10 minutes, and the supernatant was recovered to obtain gastric juice therefrom. The amount of the gastric juice and its pH were measured. The acidity of the gastric juice was determined by 0.1 N-NaOH volume (ueq/mL) for automatic titration of gastric acid to pH 7.0. The total acid output was obtained by multiplying the gastric acidity by the amount of gastric juice. Inhibition Activity (%) of Test Compounds=(total gastric acid secretion in control group−total gastric acid secretion in groups treated with test compounds)/total gastric acid secretion in control group×100
# T1 sequence (P19156 whole entry): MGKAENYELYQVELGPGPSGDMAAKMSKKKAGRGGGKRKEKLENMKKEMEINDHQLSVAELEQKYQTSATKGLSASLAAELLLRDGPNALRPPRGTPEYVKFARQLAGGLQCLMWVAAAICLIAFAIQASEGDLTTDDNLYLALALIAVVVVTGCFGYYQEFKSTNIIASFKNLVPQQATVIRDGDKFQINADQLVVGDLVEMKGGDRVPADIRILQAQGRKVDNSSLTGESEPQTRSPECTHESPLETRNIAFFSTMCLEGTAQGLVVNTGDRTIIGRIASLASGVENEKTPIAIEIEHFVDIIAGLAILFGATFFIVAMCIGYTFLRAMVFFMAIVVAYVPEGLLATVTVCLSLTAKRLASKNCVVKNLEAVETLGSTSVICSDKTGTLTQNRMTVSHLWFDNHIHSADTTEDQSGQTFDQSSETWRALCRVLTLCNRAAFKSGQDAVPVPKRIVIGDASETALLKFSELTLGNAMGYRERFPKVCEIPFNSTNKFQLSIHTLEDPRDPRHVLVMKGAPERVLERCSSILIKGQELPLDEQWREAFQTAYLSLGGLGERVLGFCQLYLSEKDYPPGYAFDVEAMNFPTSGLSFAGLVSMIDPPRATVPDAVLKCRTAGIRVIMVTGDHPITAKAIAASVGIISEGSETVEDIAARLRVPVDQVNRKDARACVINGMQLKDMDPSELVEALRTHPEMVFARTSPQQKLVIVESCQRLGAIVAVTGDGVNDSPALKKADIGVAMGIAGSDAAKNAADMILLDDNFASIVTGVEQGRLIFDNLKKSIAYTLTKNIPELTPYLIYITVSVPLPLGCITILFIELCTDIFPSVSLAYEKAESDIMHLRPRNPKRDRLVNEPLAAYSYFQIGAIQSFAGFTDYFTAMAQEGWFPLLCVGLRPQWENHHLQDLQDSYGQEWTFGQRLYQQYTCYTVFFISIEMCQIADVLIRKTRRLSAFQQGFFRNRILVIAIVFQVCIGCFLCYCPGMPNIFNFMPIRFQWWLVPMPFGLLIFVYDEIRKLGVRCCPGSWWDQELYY
# T1 sequence (P18434 whole entry partner): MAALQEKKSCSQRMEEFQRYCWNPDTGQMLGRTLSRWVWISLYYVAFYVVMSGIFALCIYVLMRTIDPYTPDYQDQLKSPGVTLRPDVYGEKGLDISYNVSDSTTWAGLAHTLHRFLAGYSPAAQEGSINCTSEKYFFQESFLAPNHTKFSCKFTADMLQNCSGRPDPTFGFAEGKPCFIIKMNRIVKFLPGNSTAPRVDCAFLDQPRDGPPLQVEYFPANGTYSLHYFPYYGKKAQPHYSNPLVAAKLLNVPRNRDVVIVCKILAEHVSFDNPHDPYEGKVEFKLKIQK
SMILES,IC50 [1],inhibition in vivo at 3 mg/kg [2]
"CNCc1cn(S(=O)(=O)c2cccnc2)c2cc(Nc3ccc(OC)cc3OC(F)(F)F)ccc12 [Example 50, N-(4-methoxy-2-(trifluoromethoxy)phenyl)-3-((methylamino)methyl)-1-(pyridin-3-ylsulfonyl)-1H-indol-6-amine hydrochloride]",1370 nM,67%
"CNCc1cn(S(=O)(=O)c2cccnc2)c2cc(Nc3ccc(OC(F)(F)F)cc3C)ccc12 [Example 53, N-(2-methyl-4-(trifluoromethoxy)phenyl)-3-((methylamino)methyl)-1-(pyridin-3-ylsulfonyl)-1H-indol-6-amine hydrochloride]",490 nM,45%
"CNCc1cn(S(=O)(=O)c2cccnc2)c2cc(Nc3ccc(OC(F)(F)F)cc3Cl)ccc12 [Example 55, N-(2-chloro-4-(trifluoromethoxy)phenyl)-3-((methylamino)methyl)-1-(pyridin-3-ylsulfonyl)-1H-indol-6-amine hydrochloride]",420 nM,55%
"CNCc1cn(S(=O)(=O)c2cccnc2)c2cc(Nc3ccc(OC(F)(F)F)cc3OC)ccc12 [Example 56, N-(2-methoxy-4-(trifluoromethoxy)phenyl)-3-((methylamino)methyl)-1-(pyridin-3-ylsulfonyl)-1H-indol-6-amine hydrochloride]",460 nM,82%
"CNCc1cn(S(=O)(=O)c2cccnc2)c2cc(Nc3cc(F)c(C)cc3F)ccc12 [Example 72, N-(2,5-difluoro-4-methylphenyl)-3-((methylamino)methyl)-1-(pyridin-3-ylsulfonyl)-1H-indol-6-amine hydrochloride]",610 nM,49%
"CNCc1cn(S(=O)(=O)c2cccnc2)c2cc(Nc3cccnc3OC)ccc12 [Example 108, N-(2-methoxypyridin-3-yl)-3-((methylamino)methyl)-1-(pyridin-3-ylsulfonyl)-1H-indol-6-amine hydrochloride]",1590 nM,49%
"CNCc1cn(S(=O)(=O)c2cccnc2)c2cc(Nc3ccc(Cl)nc3OC)ccc12 [Example 120, N-(6-chloro-2-methoxypyridin-3-yl)-3-((methylamino)methyl)-1-(pyridin-3-ylsulfonyl)-1H-indol-6-amine hydrochloride]",420 nM,46%
"CNCc1cn(S(=O)(=O)c2cccnc2)c2cc(Nc3ccc(C(F)(F)F)nc3Cl)ccc12 [Example 125, N-(2-chloro-6-(trifluoromethyl)pyridin-3-yl)-3-((methylamino)methyl)-1-(pyridin-3-ylsulfonyl)-1H-indol-6-amine hydrochloride]",1060 nM,45%
"CNCc1cn(S(=O)(=O)c2cccnc2)c2cc(Nc3ccnc(Cl)c3Br)ccc12 [Example 133, N-(3-bromo-2-chloropyridin-4-yl)-3-((methylamino)methyl)-1-(pyridin-3-ylsulfonyl)-1H-indol-6-amine hydrochloride]",770 nM,40%
"CNCc1cn(S(=O)(=O)c2cccc(OC(F)F)c2)c2cc(Nc3ccc(OC)nc3Cl)ccc12 [Example 182, N-(2-chloro-6-methoxypyridin-3-yl)-1-((3-(difluoromethoxy)phenyl)sulfonyl)-3-((methylamino)methyl)-1H-indol-6-amine hydrochloride]",390 nM,44%

# More lines, in order of falling IC50 [1], values ahead:
IC50 [1],SMILES,inhibition in vivo at 3 mg/kg [2]
390 nM,"CNCc1cn(S(=O)(=O)c2cccc(F)c2)c2cc(Nc3ccc(Cl)nc3OC)ccc12 [Example 141, N-(6-chloro-2-methoxypyridin-3-yl)-1-((3-fluorophenyl)sulfonyl)-3-((methylamino)methyl)-1H-indol-6-amine hydrochloride]",51%
380 nM,"CNCc1cn(S(=O)(=O)c2cccc(F)c2)c2cc(Nc3ccc(OC)nc3Cl)ccc12 [Example 144, N-(2-chloro-6-methoxypyridin-3-yl)-1-((3-fluorophenyl)sulfonyl)-3-((methylamino)methyl)-1H-indol-6-amine hydrochloride]",53%
370 nM,"CNCc1cn(S(=O)(=O)c2cncc(F)c2)c2cc(Nc3ccc(C)cc3F)ccc12 [Example 210, N-(2-fluoro-4-methylphenyl)-1-((5-fluoropyridin-3-yl)sulfonyl)-3-((methylamino)methyl)-1H-indol-6-amine hydrochloride]",43%
350 nM,"CNCc1cn(S(=O)(=O)c2cccnc2)c2cc(Nc3ccc(OC)nc3Cl)ccc12 [Example 123, N-(2-chloro-6-methoxypyridin-3-yl)-3-((methylamino)methyl)-1-(pyridin-3-ylsulfonyl)-1H-indol-6-amine hydrochloride]",40%
310 nM,"CNCc1cn(S(=O)(=O)c2cccnc2)c2cc(Nc3ccc(C)c(F)c3F)ccc12 [Example 65, N-(2,3-difluoro-4-methylphenyl)-3-((methylamino)methyl)-1-(pyridin-3-ylsulfonyl)-1H-indol-6-amine hydrochloride]",42%
290 nM,"CNCc1cn(S(=O)(=O)c2cccnc2)c2cc(Nc3ccc(OC)cc3[N+](=O)[O-])ccc12 [Example 52, N-(4-methoxy-2-nitrophenyl)-3-((methylamino)methyl)-1-(pyridin-3-ylsulfonyl)-1H-indol-6-amine hydrochloride]",70%
290 nM,"CNCc1cn(S(=O)(=O)c2cccc(F)c2)c2cc(Nc3ccc(Cl)nc3C(F)(F)F)ccc12 [Example 143, N-(6-chloro-2-(trifluoromethyl)pyridin-3-yl)-1-((3-fluorophenyl)sulfonyl)-3-((methylamino)methyl)-1H-indol-6-amine hydrochloride]",53%
290 nM,"CNCc1cn(S(=O)(=O)c2cccc(Cl)c2)c2cc(Nc3ccc(OC)nc3Cl)ccc12 [Example 160, N-(2-chloro-6-methoxypyridin-3-yl)-1-((3-chlorophenyl)sulfonyl)-3-((methylamino)methyl)-1H-indol-6-amine hydrochloride]",57%
260 nM,"CNCc1cn(S(=O)(=O)c2cccc(Cl)c2)c2cc(Nc3ccc(OC)cc3F)ccc12 [Example 153, 1-((3-chlorophenyl)sulfonyl)-N-(2-fluoro-4-methoxyphenyl)-3-((methylamino)methyl)-1H-indol-6-amine hydrochloride]",42%
180 nM,"CNCc1cn(S(=O)(=O)c2cccc(F)c2)c2cc(Nc3ccc(OC)cc3F)ccc12 [Example 139, N-(2-fluoro-4-methoxyphenyl)-1-((3-fluorophenyl)sulfonyl)-3-((methylamino)methyl)-1H-indol-6-amine hydrochloride]",40%
170 nM,"CNCc1cn(S(=O)(=O)c2cccc(F)c2)c2cc(Nc3ccc(C(F)(F)F)nc3Cl)ccc12 [Example 145, N-(2-chloro-6-(trifluoromethyl)pyridin-3-yl)-1-((3-fluorophenyl)sulfonyl)-3-((methylamino)methyl)-1H-indol-6-amine hydrochloride]",45%
120 nM,"CNCc1cn(S(=O)(=O)c2cccc(F)c2)c2cc(Nc3ccc(F)cc3C)ccc12 [Example 138, N-(4-fluoro-2-methylphenyl)-1-((3-fluorophenyl)sulfonyl)-3-((methylamino)methyl)-1H-indol-6-amine hydrochloride]",55%
120 nM,"CNCc1cn(S(=O)(=O)c2cccc(F)c2)c2cc(Nc3ccc(Cl)nc3Cl)ccc12 [Example 142, N-(2,6-dichloropyridin-3-yl)-1-((3-fluorophenyl)sulfonyl)-3-((methylamino)methyl)-1H-indol-6-amine hydrochloride]",42%
90 nM,"CNCc1cn(S(=O)(=O)c2cncc(F)c2)c2cc(Nc3ccc(C)cc3Cl)ccc12 [Example 211, N-(2-chloro-4-methylphenyl)-1-((5-fluoropyridin-3-yl)sulfonyl)-3-((methylamino)methyl)-1H-indol-6-amine hydrochloride]",43%
10 nM,"CNCc1cn(S(=O)(=O)c2cccc(Cl)c2)c2cc(Nc3ccc(C)cc3OC(F)(F)F)ccc12 [Example 148, 1-((3-chlorophenyl)sulfonyl)-N-(4-methyl-2-(trifluoromethoxy)phenyl)-3-((methylamino)methyl)-1H-indol-6-amine hydrochloride]",45%
